# Measured values reported in paper PMC4890880 (ACS infectious diseases, 2016).
# Like-named read-outs stand apart in the source and are kept apart here.
# Assays:
# [1] = molecular target: QuantiLum Recombinant Luciferase (Photinus pyralis, UniProt P08659); assay: Bioluminescence quantification of compound luciferase inhibition; settings: for Emax: read-out: LucInhib max inhibition
# HepG2-A16-CD81EGFP cells [2] = assay: cells; settings: Homo sapiens; for IC50: HepG2, read-out: Tox IC50; for inhibition at 50 µM: HepG2, read-out: Tox max inhibition (%) @ 50 uM; for inhibition at 10 µM: HepG2, read-out: Tox max inhibition (%) @ 10 uM
# [3] = system: Plasmodium berghei (Pb-Luc) exoerythrocytic-stage parasites; assay: microbe, parasite or virus in culture; settings: for inhibition at 10 µM: read-out: PbLuc max inhibition (%) @ 10 uM
# HepG2-A16-CD81EGFP cells [4] = assay: cells; settings: Homo sapiens, HepG2, read-out: % inhibition
# HepG2-A16-CD81EGFP cells [5] = settings: human, 50 uM
# [6] = HepG2, read-out: HepG2 Tox% @ 50 uM rep1
# [7] = read-out: Inhibition% @ 50 uM rep1
# [8] = read-out: Inhibition% @ 50 uM rep2
# [9] = read-out: PbLuc IC50, dose response, 1/3 dilutions, max conc. 10 or 50 uM, unit inferred
# [10] = read-out: PbLuc max inhibition (%) @ 50 uM
# [11] = HepG2, read-out: HepG2 Tox% @ 50 uM rep2
# Chain of QuantiLum Recombinant Luciferase (P08659 whole entry): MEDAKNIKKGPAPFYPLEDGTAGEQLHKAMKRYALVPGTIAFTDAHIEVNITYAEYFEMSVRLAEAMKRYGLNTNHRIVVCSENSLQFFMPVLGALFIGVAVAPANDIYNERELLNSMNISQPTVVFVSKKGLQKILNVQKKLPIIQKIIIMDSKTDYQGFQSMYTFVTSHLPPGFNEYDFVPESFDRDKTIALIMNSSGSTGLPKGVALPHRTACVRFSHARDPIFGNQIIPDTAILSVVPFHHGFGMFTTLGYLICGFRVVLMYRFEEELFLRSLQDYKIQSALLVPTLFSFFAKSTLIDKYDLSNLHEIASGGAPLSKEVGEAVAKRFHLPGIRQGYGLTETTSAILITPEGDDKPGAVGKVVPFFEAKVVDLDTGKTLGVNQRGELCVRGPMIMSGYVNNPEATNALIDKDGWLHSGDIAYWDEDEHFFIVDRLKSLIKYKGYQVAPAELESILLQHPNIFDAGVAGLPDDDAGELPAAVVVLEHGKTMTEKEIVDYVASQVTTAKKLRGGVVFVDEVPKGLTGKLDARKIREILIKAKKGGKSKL
Compound,"inhibition at 50 µM [3, 7] [%]","inhibition at 50 µM [3, 8] [%]",inhibition at 50 µM (HepG2-A16-CD81EGFP cells [4]) [%],HepG2 Tox% @ 50 uM rep2 (HepG2-A16-CD81EGFP cells [5]) [%],HepG2 Tox% @ 50 uM rep1 (HepG2-A16-CD81EGFP cells [5]) [%],other results
Oc1c2c(nc3ccccc13)CCCC2 [MMV665843],98,100,,,,"IC50 [1]: > 50 µM; Emax [1]: 18%; cytotoxicity at 50 µM (HepG2-A16-CD81EGFP cells [2]; [6]): -7.59%; IC50 (HepG2-A16-CD81EGFP cells [2]): > 50 µM; inhibition at 50 µM (HepG2-A16-CD81EGFP cells [2]): 8%; IC50 [3, 9]: 0.894 µM; inhibition at 50 µM [3, 10]: 101%"
O=C(Nc1ccc(N2CCN(Cc3ccccc3)CC2)cc1)c1cccs1 [MMV019670],102,102,,,,"IC50 [1]: > 20 µM; Emax [1]: 14%; cytotoxicity at 50 µM (HepG2-A16-CD81EGFP cells [2]; [6]): -7.52%; cytotoxicity at 50 µM (HepG2-A16-CD81EGFP cells [2]; [11]): -9%; IC50 (HepG2-A16-CD81EGFP cells [2]): > 10 µM; inhibition at 10 µM (HepG2-A16-CD81EGFP cells [2]): 32%; IC50 [3, 9]: 0.0944 µM; inhibition at 10 µM [3]: 110%"
COCCn1c(C)nc2ccccc2c1=O [MMV665904],100,102,,,,"IC50 [1]: > 20 µM; Emax [1]: 13%; cytotoxicity at 50 µM (HepG2-A16-CD81EGFP cells [2]; [6]): 1.26%; cytotoxicity at 50 µM (HepG2-A16-CD81EGFP cells [2]; [11]): -3%; IC50 (HepG2-A16-CD81EGFP cells [2]): > 10 µM; inhibition at 10 µM (HepG2-A16-CD81EGFP cells [2]): 22%; IC50 [3, 9]: 1.99 µM; inhibition at 10 µM [3]: 90%"
COc1ccccc1N1C(=N)SC(=Cc2ccc(OCc3ccccc3F)cc2)C1=O [MMV007199],102,101,,,,"IC50 [1]: > 50 µM; Emax [1]: 25%; cytotoxicity at 50 µM (HepG2-A16-CD81EGFP cells [2]; [6]): 14%; IC50 (HepG2-A16-CD81EGFP cells [2]): > 50 µM; inhibition at 50 µM (HepG2-A16-CD81EGFP cells [2]): 24%; IC50 [3, 9]: 1.82 µM; inhibition at 50 µM [3, 10]: 106%"
CCOc1ccc(CCNC(=O)c2cccs2)cc1OCC [MMV007978],104,106,,,,"IC50 [1]: > 50 µM; Emax [1]: 34%; cytotoxicity at 50 µM (HepG2-A16-CD81EGFP cells [2]; [6]): 43%; cytotoxicity at 50 µM (HepG2-A16-CD81EGFP cells [2]; [11]): 10%; IC50 (HepG2-A16-CD81EGFP cells [2]): > 50 µM; inhibition at 50 µM (HepG2-A16-CD81EGFP cells [2]): 8%; IC50 [3, 9]: 7.94 µM; inhibition at 50 µM [3, 10]: 104%"
COc1cccc(C(=O)Nc2ccc(-c3nc4ccccc4[nH]3)cc2)c1 [MMV019762],-94,-91,,,,"IC50 [1]: > 20 µM; Emax [1]: -3%; cytotoxicity at 50 µM (HepG2-A16-CD81EGFP cells [2]; [6]): -16%; IC50 (HepG2-A16-CD81EGFP cells [2]): > 10 µM; inhibition at 10 µM (HepG2-A16-CD81EGFP cells [2]): 9%; IC50 ([3]; read-out: PbLuc IC50, dose response, unit inferred): > 10 µM; inhibition at 10 µM [3]: 31%"
COc1ccc2nc(C)cc(Nc3ccc(Cl)cc3)c2c1 [MMV007875],99,101,94.8,99,,
O=C(Nc1ccc(CN2CCOCC2)cc1)c1ccc(-c2cc(Cl)ccc2Cl)o1 [MMV020651],100,99,93.9,96,,
COc1ccc(-c2cc3c(nn2)-c2ccccc2C3=O)cc1 [MMV666026],61,71,21.5,,21,
CCOC(=O)C1=C(C)N=c2sc(=Cc3cc(Cl)ccc3O)c(=O)n2C1c1ccc(OC)cc1 (stereo not shown) [MMV665971],103,104,99.7,,100,
O=C(Nc1ccccc1O)c1ccc(Oc2cccc(C(=O)Nc3ccccc3O)c2)cc1 [MMV665888],102,104,98.7,100,,
CCN(CC)c1cc(C)c2cc(NC(=O)c3cccc(OC)c3)ccc2n1 [MMV000498],104,106,99.5,101,100,
CCOc1ccc(N2C(N)=NC(N)=NC2(C)C)cc1 [MMV667486],21,22,-13.4,,-13,
CN(C)c1ccc(N=Cc2ccc(N3CCOCC3)cc2)cc1 [MMV073843],88,83,-8.32,,-8,
CN(C)c1ccc(N2C(N)=NC(N)=NC2(C)C)cc1 [MMV667487],71,82,-8.72,,-9,
O=C(NC1CCN(Cc2ccccc2)CC1)c1cc2nc(-c3ccc(Cl)s3)cc(C(F)(F)F)n2n1 [MMV396635],7.6,24,-29.6,,-30,
COCCNCC(O)Cn1c2ccc(Cl)cc2c2cc(Cl)ccc21 (stereo not shown) [MMV019017],103,102,96.7,99,,
O=C(NCC1Cc2cccc(-c3ccncc3)c2O1)c1csc2c1CCCC2 (stereo not shown) [MMV665954],100,102,95.9,98,,
O=C(Nc1cccc(-c2nc3ccccc3[nH]2)c1)c1cccc(NC(=O)c2ccco2)c1 [MMV665883],101,102,97.2,99,,
CCOC(=O)C1=C(C)N=c2sc(=Cc3ccccc3O)c(=O)n2C1c1ccc(OC)c2ccccc12 (stereo not shown) [MMV666604],53,33,-7.73,,-8,
CCOc1cccc2sc(N(Cc3cccnc3)C(=O)C3CCCCC3)nc12 [MMV001230],102,103,97.3,99,,
Oc1c(C(Nc2ccccn2)c2cccc(Oc3ccccc3)c2)ccc2cccnc12 (stereo not shown) [MMV665814],-33,-6,-17.3,,-17,
COCCNC(=O)c1ccc(OC2CCN(Cc3ccc(F)c(F)c3)CC2)c(Cl)c1 [MMV666072],100,102,90.7,97,,
CCOc1cc2c(cc1OCC)C(c1cc(Cl)c(O)c(OCC)c1)NCC2 (stereo not shown) [MMV000481],73,75,20.4,,20,
COc1cccc(Nc2nc(NCCO)c3ccccc3n2)c1 [MMV011944],103,106,99.7,101,100,
CCc1ccc(Nc2cc(C)c3ccc(O)cc3n2)cc1 [MMV000570],103,105,98.1,100,,
CC1(c2ccccc2)Nc2ccccc2-c2nc3ccccc3n21 (stereo not shown) [MMV396715],104,106,98.6,102,,
Cn1c(=O)c2cc(C(=O)NCCCN3CCCCCC3)sc2c2ccccc21 [MMV019313],104,106,99.9,,100,
COc1ccc(N2CCN(C(CNC(=O)CC(C)(C)C)c3ccc4c(c3)OCO4)CC2)cc1 (stereo not shown) [MMV665908],61,66,-9.68,,-10,
